{"source": "patent US20080139609A1", "about": "“GRANISETRON COMPOSITIONS” (priority 2006, published 2008)", "origin": "cited, not measured here", "key": {"[1]": {"conditions": "in water and in normal saline at 20° C."}, "[2]": {"tested_on": "other serotonin receptors", "conditions": "selective 5-HT3 receptor antagonist"}}}
{"smiles": "CN1C2CCCC1CC(NC(=O)c1nn(C)c3ccccc13)C2.Cl", "note": "(stereo not drawn) [Granisetron hydrochloride, endo-N-(9-methyl-9-azabicyclo[3.3.1]non-3-yl)-1-methyl-1H-indazole-3-carboxamide hydrochloride]", "values": [{"measurement": "Solubility", "setting": "[1]", "value": "readily soluble"}]}
{"smiles": "CN1C2CCCC1CC(NC(=O)c1nn(C)c3ccccc13)C2", "note": "(centres unmarked) [Granisetron]", "values": [{"measurement": "Affinity for other serotonin receptors", "setting": "[2]", "value": "little or no affinity"}]}
